Assay results taken from PubChem BioAssay (NCI).
Where “and” joins values, the source holds several entries; their conditions need not be identical. Equal values may be shown once.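 48-hour exposure; five concentrations; linearly interpolated endpoints. GI50: concentration for 50% inhibition of growth. TGI: concentration producing complete growth inhibition.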

How the values were obtained:
Test in all cases: growth of human tumour cells (NCI), 48 h
HOP-62 NSCLC = system: HOP-62 NSCLC
OVCAR-3 ovarian = system: OVCAR-3 ovarian
SK-MEL-28 melanoma = system: SK-MEL-28 melanoma
NCI/ADR-RES ovarian = system: NCI/ADR-RES ovarian
MDA-MB-435 = system: MDA-MB-435
SF-295 CNS = system: SF-295 CNS
OVCAR-8 ovarian = system: OVCAR-8 ovarian
CAKI-1 renal = system: CAKI-1 renal
K-562 leukemia = system: K-562 leukemia
SR leukemia = system: SR leukemia

Row | SMILES | GI50 (HOP-62 NSCLC) [µM] | TGI (HOP-62 NSCLC) [µM] | GI50 (OVCAR-3 ovarian) [µM] | TGI (OVCAR-3 ovarian) [µM] | GI50 (SK-MEL-28 melanoma) [µM] | TGI (SK-MEL-28 melanoma) [µM] | GI50 (NCI/ADR-RES ovarian) [µM] | TGI (NCI/ADR-RES ovarian) [µM] | GI50 (MDA-MB-435) [µM] | TGI (MDA-MB-435) [µM] | GI50 (SF-295 CNS) [µM] | TGI (SF-295 CNS) | GI50 (OVCAR-8 ovarian) [µM] | TGI (OVCAR-8 ovarian) | GI50 (CAKI-1 renal) [µM] | TGI (CAKI-1 renal) [µM] | GI50 (K-562 leukemia) [µM] | TGI (K-562 leukemia) [µM] | TGI (SR leukemia) | GI50 (SR leukemia) [µM]
1 | COc1ncnc2c(-c3ccco3)cn(COCc3ccccc3)c12 | > 50 | > 50 | > 50 | > 50 | > 50 | > 50 | > 50 | > 50 | > 50 | > 50 | > 50 | > 50 µM | > 50 | > 50 µM | > 50 | > 50 | > 50 | > 50 | – | –
2 | COC(=O)C(=O)C(C(=O)C(=O)Nc1ccccc1C(N)=O)c1nc2ccc(C(=O)c3ccccc3)cc2[nH]c1=O (stereo not drawn) | – | – | – | – | – | > 100 | – | – | – | – | – | > 100 µM | – | > 100 µM | – | > 100 | – | > 100 | > 100 µM | –
3 | Cc1ns/c(=N\C(=S)N(C)C)n1C | – | > 100 | – | – | – | > 100 | – | – | – | – | – | > 100 µM | – | > 100 µM | – | > 100 | – | > 100 | > 100 µM | –
4 | COc1ccc(N(Cc2cc(OC)c(OC)c(OC)c2)C2OC(=O)c3ccccc32)cc1 (stereo not drawn) | 0.783 | > 100 | 0.368 | 1.98 | – | > 100 | – | – | 0.165 | 0.433 | 0.534 | > 100 µM | 0.779 | > 100 µM | 0.532 | > 100 | 0.346 | > 100 | > 100 µM | 0.456
5 | C/C(=N/Nc1ccc([N+](=O)[O-])cc1[N+](=O)[O-])C(CC(C(=O)Nc1ccccc1C)/C(C)=N\Nc1ccc([N+](=O)[O-])cc1[N+](=O)[O-])C(=O)Nc1ccccc1C (stereo not drawn) | – | 30.6 | – | 22.4 | – | 51.1 | – | – | – | – | – | 33.9 µM | – | 14 µM | – | 30 | – | > 100 | – | –
6 | COc1ccc(S(=O)(=O)NCCNc2nccc(-c3c(-c4ccccc4)nc4sccn34)n2)cc1 | 15.3 | > 100 | 3.56 | > 100 | 5.79 | > 100 | 5.18 | > 100 | 1.22 | > 100 | 6.52 | > 100 µM | 3.08 | > 100 µM | 1.29 | > 100 | – | – | > 100 µM | 0.784
7 | COc1cc(C(=O)/C=C/c2c(C(F)(F)F)nc3sccn23)cc(OC)c1OC | 1.93 | 3.92 | 1.86 | 3.4 | 1.69 | 3.1 | – | – | 1.61 | 4.35 | 2.58 | 7.86 µM | 3.08 | 22.6 µM | 1.76 | 5.31 | 1.74 | 6.27 | 3.61 µM | 0.54
8 | CN1C(=O)C23CC4=CC=CC(O)C4N2C(=O)C1(CO)SS3 (stereo not drawn) | – | 0.322 | – | 0.33 | – | 2.26 | – | 0.0661 | – | 2.56 | – | 0.389 µM | – | 0.154 µM | – | 0.759 | – | – | 0.0996 µM | –
9 | O=C1/C(=C/c2ccccc2)CN(C(=O)Oc2ccc([N+](=O)[O-])cc2)C/C1=C\c1ccccc1 | – | – | – | 5.58 | – | 7.65 | – | – | – | – | 2.07 | 7.93 µM and 4.98 µM | 1.86 | 3.74 µM and 4.18 µM | – | – | 1.79 | 5.33 | 5.54 µM and 0.775 µM | 0.261
10 | O=C1CC2Sc3ccccc3N=C2N1c1ccc(Cl)cc1Cl (stereo not drawn) | – | > 100 | – | > 100 | – | > 100 | – | – | – | – | – | > 100 µM | – | > 100 µM | – | – | – | – | – | –
11 | COC1C(CO)OC(n2c3ccccc3c3c4c(c5c6ccccc6[nH]c5c32)C(=O)NC4=O)C(O)C1OC(=O)C(N)CCCCN (stereo not drawn) | 1.09 | 17.4 | 0.822 | 5.1 | 2.67 | > 18.2 | > 50 | > 50 | 1.07 | 5.04 | 1.26 | 7.43 µM | 0.49 | > 50 µM | 1.21 | 11.7 | 0.414 | > 50 | – | –
12 | O=C(OCc1nc2ccc(Br)cc2c(=O)n1-c1ccccc1)c1ccccc1O | – | > 100 | – | > 100 | – | > 100 | – | – | – | – | – | > 100 µM | – | > 100 µM | – | > 100 | – | > 100 | – | –
13 | O=C1c2cccc3cccc(c23)C(=O)N1CCCN1CCN(CCCN2C(=O)c3cccc4cccc(c34)C2=O)CC1 | – | > 100 | – | > 100 | – | – | – | – | – | – | – | > 100 µM | – | > 100 µM | – | > 100 | – | > 100 | – | –
14 | COC(=O)C1=C(O)C(C(=O)OC)[C@@]2(O)[C@@H](C(=O)OC)C(c3ccc(OC(=O)C(CC(C)C)NC(C)=O)cc3)C[C@@H]1[C@@H]2C(=O)OC (stereo partly drawn) | 31.2 | > 100 | > 100 | > 100 | > 100 | > 100 | 39 | > 100 | > 100 | > 100 | 74.8 | > 100 µM | 43.7 | > 100 µM | > 100 | > 100 | 95 | > 100 | – | –
15 | COc1ccccc1NC(=O)C(=O)C1C(=O)Nc2ccccc2S1=O (stereo not drawn) | – | > 100 | – | > 100 | – | > 100 | – | – | – | – | – | > 100 µM | – | > 100 µM | – | > 100 | – | > 100 | > 100 µM | –
16 | Cn1cc(-c2nn3cc(-c4cccs4)nc3s2)c2cc(F)ccc21 | 1.92 | 23.1 | 2.06 | 9.67 | 7.23 | > 100 | 0.991 | 19.1 | 0.293 | 1.13 | 2.24 | 9.39 µM | 4.53 | > 100 µM | 2.42 | 57.4 | 0.451 | > 100 | – | –
17 | N#CC(=C=[N-])[n+]1ccc(Cl)cc1 | – | 83 | – | 31.5 | – | – | – | – | – | – | – | 38.9 µM | – | 37.9 µM | – | 10.9 | – | 11.3 | 62.2 µM | –
18 | C#Cc1ccc(-n2c(/C=C/c3cc(OC)c(OC)c(OC)c3)nc3ncccc3c2=O)cc1 | 13.3 | > 100 | 2.33 | 6.42 | 34.6 | > 100 | 3.61 | 34.5 | 1.98 | 5.35 | – | – | 9.67 | > 100 µM | 6.07 | > 100 | 3.83 | > 100 | – | –
